Test results reported in article PMC9601927 (Foods, 2022).
“Also recorded” adds a separate entry of the source.

What was measured:
[1] = test system: sGLT1; assay: Immunofluorescence staining of sGLT1 in Caco-2 cells; format: cell-based; conditions: ANC 2.3 × 10^−4 mg/mL or FA-g-CS 9 × 10^−5 mg/mL, 48 h
Protocol: (§1) Immunofluorescence staining was carried out to further validate the effect of FA-g-CS/ANC on the expression of sGLT1 and GLUT2. In short, Caco-2 cells were transfected with NC siRNA (negative control), GLUT2-siRNA-2, and sGLT1-siRNA-3; then, they were seeded onto a 4-well slide and chamber (Watson, Kobe, Japan). Subsequently, cells were incubated with 0.09 µg/mL FA-g-CS, 0.23 µg/mL ANC, or their combination at 37 °C for 48 h. Then, they were fixed with 4% paraformaldehyde for 10 min and soaked with 0.5% Triton X-100 in PBS for 15 min. In this study, goat serum was used to avoid nonspecific binding at room temperature. After 30 min of treatments, the cells were incubated with the primary antibody ([…], Santa Cruz Biotechnology, with 1:100 dilutions) at 4 °C overnight, followed by incubation with the secondary antibody (goat anti-mouse IgG1-HRP, Santa Cruz Biotechnology, Shanghai, China, with 1:100 dilutions) for 1 h at 20–37 °C. Nuclear staining was performed with DAPI, and the images were captured with a fluorescence microscope (BX53, Olympus, Tokyo, Japan).

[2] = test system: Caco-2 cells; assay: MTT cell viability assay; format: cell-based
Protocol: Caco-2 cells were provided by the Cell Bank of the Chinese Academy of Sciences (Shanghai, China). MTT analysis was used to investigate cell viability. In short, Caco-2 cells were incubated with ANC (0.23, 0.69, 2.06, 6.17, 18.52, 55.56, 166.67, or 500 × 10^−3 mg/mL), FA-g-CS (0.09, 0.27, 0.82, 2.47, 7.41, 22.22, 66.67, or 200 × 10^−3 mg/mL), or their respective combinations. Each group was incubated with three multiple wells for 48 h. Subsequently, the chemical medium was replaced with fresh MTT solution for 3 h at 37 °C and the […] was dissolved with DMSO. Then, the optical density (OD) was measured at 570 nm using a PerkinElmer EnVision (PerkinElmer, Waltham, MA, USA). The following Formula (1) was used to calculate cell viability:(1) Cell viability(%)=ODsample−ODblank/ODcontrol−ODblank where ODcontrol, ODsample, and ODblank represent the measurements of the control, sample, and blank, respectively.

[3] = test system: sGLT1; assay: Western blot of sGLT1 expression in Caco-2 cells after siRNA transfection and incubation; format: cell-based
Protocol: (§2) Firstly, the cells were washed twice with 1 mL of cold PBS and then lysed in 100 μL of ice-cold RIPA lysis buffer. Western blot analysis was performed following the previous method with minor modifications. Briefly, total protein samples were resolved by SDS-PAGE (8%, 10%, or 12%) and transferred to PVDF membranes blocked with 5% nonfat milk powder in TBST; these were then incubated with 8 μg of primary antibody at a dilution of 1:1000/500 (v/v) overnight at 4 °C. Detection was performed with 10 mL of ECL and oxidizing reagent and equal amounts of HRP-conjugated anti-mouse at a 1:5000 (v/v) dilution rate. To further illustrate the effect of FA-g-CS on the transmembrane transport of ANC, the Caco-2 cells were transfected with siRNA targeted to sGLT1 and GLUT2 (the optimal interference fragments screened by previous tests) and then incubated with FA-g-CS, ANC, or their combinations. Finally, the expressions of sGLT1 and GLUT2 were detected using a Western blot assay.

[4] = test system: Caco-2 cells; format: cell-based; conditions: 2.3 × 10^−4 mg/mL ANC, 48 h
Protocol: Due to cell membrane damage, the intracellular LDH was released into the culture medium. The LDH level was used as an indicator of irreversible cell death. The method used here was based on the spectrophotometric determination at 490 nm of NADH disappearance.
Upon exposure to different concentrations of ANC, FA-g-CS, or their combinations, the culture medium was aspirated and centrifuged at 400× g for 5 min in tubes with a porous matrix to acquire a cell-free supernatant. A measure of 120 microliters of media was mixed with 60 μL of reagent in a 96-well plate, and the absorbance was recorded with PerkinElmer EnVision. The cytotoxicity of these substances was reflected using the following Equation (2):(2) LDH activity(mU/mL)=ODsample−ODblank/ODstandard−ODblank of standard×1000 mU/mL where ODsample, ODblank, ODstandard, and ODblank represent the measurements of the sample, the blank, the standard, and the blank of standard, respectively.

[5] = test system: GLUT2; assay: Western blot of GLUT2 expression in Caco-2 cells after siRNA transfection and incubation; format: cell-based
Protocol: as §2

[6] = test system: GLUT2; assay: Immunofluorescence staining of GLUT2 in Caco-2 cells; format: cell-based; conditions: ANC 2.3 × 10^−4 mg/mL or FA-g-CS 9 × 10^−5 mg/mL, 48 h
Protocol: as §1

[7] = ANC transmembrane transport across Caco-2 cell monolayer (Transwell, HPLC); format: in vitro ADME; conditions: human, Caco-2
Protocol: In this work, we utilized and slightly modified a procedure from Zou et al. to perform ANC transport studies. Firstly, ANC commercial powder was pre-dissolved in ultra-pure water and phosphate-buffered solution (PBS, pH7.4) was used for FA-g-CS dissolving. Then, pre-warmed phosphate-buffered saline (PBS) was used to wash and equilibrate the Transwell. Subsequently, the transport buffer containing ANC was added to the basolateral (1.5 mL) or the apical (0.5 mL) side of the inserts, while the corresponding volume of transport buffer was added to the receiving container. Samples measuring 50 uL were taken after 1, 2, 3, and 4 h incubation, and the same amount of pre-warmed PBS was replenished immediately. The samples were treated with HCl and frozen until HPLC analysis. The ANC-absorption-enhancing studies with FA-g-CS across Caco-2 cells were conducted using a transport buffer containing FA-g-CS+ANC instead of ANC alone.
Transport efficiency (A→B (%)) was calculated according to the following formula: (concentrations of the compound at basolateral side overtime)/(concentrations of the compound at the apical side at zero hours) × 100. The apparent permeability coefficient (Papp) was defined as follows: Papp = (dQ/dt)(1/[AC0]); here, A represents the surface area of the Transwell, C0 represents the compound concentration added in the apical side, and the transport rate of the compound over time is denoted by dQ/dt.

[8] = cells treated with nonrelated and scrambled siRNA
[9] = cells treated with siRNA transfection
[10] = siRNA-transfected Caco-2 cells incubated with compounds (abstract)

In the case of `OC[C@H]1O[C@@H](Oc2cc3c(O)cc(O)cc3[o+]c2-c2ccc(O)c(O)c2)[C@H](O)[C@@H](O)[C@@H]1O` [ANC, Cyanidin-3-glucoside], the “protein level of sGLT1 (immunofluorescence) compared with the control cells” value [1] is reported as “increased”, the “influence on Caco-2 cells (Figure 1A–C, MTT)” value ([2]; 2.3 × 10^−4 or 6.9 × 10^−4 mg/mL ANC) is reported as “insignificant influence” and the “effect on cell viability (MTT)” value ([2]; ANC concentration lower than 6.17 × 10^−3 mg/mL, 48 h) is reported as “no significant effect”. For the same molecule, the “expression of sGLT1 compared with the blank” value [3, 8] was “significantly elevated”, the “expression level of sGLT1 compared with the blank control” value [3, 9] was “significantly increased” and the “increased sGLT1 expression” value [3, 10] was < 60%. The “cell cytotoxicity (LDH assay)” value [4] was “negligible increase; also recorded: not toxic”, the “expression of GLUT2 compared with the blank” value [5, 8] was “significantly elevated” and the “expression level of GLUT2 compared with the blank control” value [5, 9] was “significantly increased”. For the same molecule, the “increased GLUT2 expression” value [5, 10] was < 60%, the “protein level of GLUT2 (immunofluorescence) compared with the control cells” value [6] was “increased” and the Papp A→B at 4 h, 0.05 ×10^−3 mg/mL ([7]; ANC 0.05 ×10^−3 mg/mL, 4 h) was 0.491 ± 0.058 ×10⁻⁶ cm/s. For the same molecule, the Papp B→A at 4 h, 0.05 ×10^−3 mg/mL ([7]; ANC 0.05 ×10^−3 mg/mL, 4 h) was 0.378 ± 0.048 ×10⁻⁶ cm/s, the efflux ratio at 4 h, 0.05 ×10^−3 mg/mL ([7]; ANC 0.05 ×10^−3 mg/mL, 4 h, read-out: Papp (B→A)/ Papp (A→B)) was 0.77 and the Papp A→B at 4 h, 0.1 ×10^−3 mg/mL ([7]; ANC 0.10 ×10^−3 mg/mL, 4 h) was 0.961 ± 0.048 ×10⁻⁶ cm/s. The Papp B→A at 4 h, 0.1 ×10^−3 mg/mL ([7]; ANC 0.10 ×10^−3 mg/mL, 4 h) was 0.719 ± 0.098 ×10⁻⁶ cm/s, the efflux ratio at 4 h, 0.1 ×10^−3 mg/mL ([7]; ANC 0.10 ×10^−3 mg/mL, 4 h, read-out: Papp (B→A)/ Papp (A→B)) was 0.75 and the Papp A→B at 4 h, 0.15 ×10^−3 mg/mL ([7]; ANC 0.15 ×10^−3 mg/mL, 4 h) was 1.5 ± 0.523 ×10⁻⁶ cm/s. The Papp B→A at 4 h, 0.15 ×10^−3 mg/mL ([7]; ANC 0.15 ×10^−3 mg/mL, 4 h) was 1.94 ± 0.908 ×10⁻⁶ cm/s, the efflux ratio at 4 h, 0.15 ×10^−3 mg/mL ([7]; ANC 0.15 ×10^−3 mg/mL, 4 h, read-out: Papp (B→A)/ Papp (A→B)) was 1.29 and the Papp A→B at 4 h, 0.2 ×10^−3 mg/mL ([7]; ANC 0.20 ×10^−3 mg/mL, 4 h) was 1.12 ± 0.108 ×10⁻⁶ cm/s. The Papp B→A at 4 h, 0.2 ×10^−3 mg/mL ([7]; ANC 0.20 ×10^−3 mg/mL, 4 h) was 1.48 ± 0.048 ×10⁻⁶ cm/s, the efflux ratio at 4 h, 0.2 ×10^−3 mg/mL ([7]; ANC 0.20 ×10^−3 mg/mL, 4 h, read-out: Papp (B→A)/ Papp (A→B)) was 1.32 and the Papp at 4 h ([7]; ANC alone, overall statement) was < 1 ×10⁻⁶ cm/s.
